Measured values published in US8273752B2, “Substituted imidazopyrimidines and triazolopyrimidines” (Bayer Intellectual Property GmbH, priority 2007, dated 2012).
Where a name gives a salt, the structure may show the parent alone.

Biological target: T1, GSK3β (Homo sapiens, UniProt P49841)
T1 construct: purchased Upstate xy
Assay: GSK3β biochemical in vitro assay (fluorescence, NADH-coupled)
Settings: 5 nM GSK3β, 40 μM substrate GSM, 50 μM ATP, 30° C., 2 hours
Protocol: The inhibitory activity of active substances is determined in a biochemical assay. The ingredients required for this purpose are mixed in a black 384-well microtitre plate with transparent base (from Greiner, catalogue number 781092). The requirements in this connection for each well of the 384-well microtitre plate are 5 nM GSK3β (from Upstate, catalogue number xy), 40 μM GSK3B substrate GSM (sequence H-RRRPASVPPSPSLSRHS-(pS)-HQRR, from Upstate, catalogue number 2-533), 30 μM nicotinamide adenine dinucleotide NADH (Roche Diagnostics, catalogue number 10107735), 50 μM adenosine triphosphate ATP (from Sigma, catalogue number A7966), and 2 mM phosphoenolpyruvate (from Roche, catalogue number 128112). The required reaction buffer in which the biochemical reaction takes place consists of 50 mM Trizma hydrochloride tris-HCl pH: 7.5 (from Sigma, catalogue number T3253), 5 mM magnesium chloride MgCl2 (from Sigma, catalogue number M8266), 0.2 mM DL-dithiothreitol DTT (from Sigma, catalogue number D9779), 2 mM ethylenediaminethertetraacid EDTA (from Sigma, catalogue number E6758), 0.01% Triton X-100 (from Sigma, catalogue number T8787) and 0.05% bovine serum albumin BSA (from Sigma, catalogue number B4287).
Active substances are dissolved in dimethyl sulphoxide DMSO (from Sigma, catalogue number D8418) in a concentration of 10 mM. Active substances are added in serial concentrations of 10 μM, 1 μM, 0.1 μM, 0.01 μM, 0.001 μM, 0.0001 μM, 0.00001 μM, 0.000001 μM to the mixtures of the biochemical reaction. As control, dimethyl sulphoxide is added instead of substance in a final concentration of 0.1%.
The reaction is incubated at 30° C. for 2 hours and then the resulting fluorescence is measured in a Tecan Safire-XFLUOR4 instrument, version V4.50 (serial number 12901300283) with the specifications: measurement mode—fluorescence measured from below, extinction wavelength 340 nm, emission wavelength 465 nm, slit width extinction 5 nm, slit width emission 5 nm, gain mode 120, delay 0 μs, number of light flashes per measurement 3, and an integration time of 40 μs.
The activity of the active substances is calculated in relation to these 0% and 100%.

T1 sequence (P49841 whole entry, species assumed): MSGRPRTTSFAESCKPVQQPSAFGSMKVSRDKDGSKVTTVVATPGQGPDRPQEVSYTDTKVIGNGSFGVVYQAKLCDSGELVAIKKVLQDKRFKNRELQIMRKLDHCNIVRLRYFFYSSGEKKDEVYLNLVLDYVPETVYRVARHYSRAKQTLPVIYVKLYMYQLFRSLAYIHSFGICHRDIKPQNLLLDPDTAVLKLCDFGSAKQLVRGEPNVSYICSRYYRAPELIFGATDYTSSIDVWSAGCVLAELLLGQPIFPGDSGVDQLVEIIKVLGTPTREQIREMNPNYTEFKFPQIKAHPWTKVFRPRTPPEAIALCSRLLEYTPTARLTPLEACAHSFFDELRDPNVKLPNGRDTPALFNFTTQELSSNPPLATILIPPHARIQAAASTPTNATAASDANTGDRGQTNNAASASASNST

Row | IC50 | SMILES
1 | 22 nM | COC(=O)c1sc(NCCNc2nc(-c3ccc(Cl)cc3Cl)cc3nccn23)nc1N [Example 134]
2 | 39 nM | N#Cc1sc(NCCNc2nc(-c3ccc(Cl)cc3Cl)cc3nc(CN4CCOCC4)nn23)nc1N [Example 185]
3 | 10 nM | Nc1nc(NCCNc2nc(-c3ccc(Cl)cc3Cl)cc3nccn23)ccc1C(=O)C(F)(F)F [Example 149, 1-{2-Amino-6-[(2-{[7-(2,4-dichlorophenyl)imidazo[1,2-c]pyrimidin-5-yl]amino}ethyl)amino]-pyridin-3-yl}-2,2,2-trifluoroethanone hydrochloride]
4 | 27 nM | N#Cc1sc(NCCNc2nc(-c3ccc(C(F)(F)F)cc3)cc3ncnn23)nc1N [Example 186]
5 | 81 nM | Nc1nc(NCCNc2nc(-c3ccc(F)c(Cl)c3)cc3nccn23)ccc1[N+](=O)[O-] [Example 53]
6 | 188 nM | CCCCc1ccc(-c2cc3nccn3c(NCCNc3ccc([N+](=O)[O-])c(N)n3)n2)cc1 [Example 65]
7 | 24 nM | Cc1cccc(-c2cc3nccn3c(NCCNc3ccc([N+](=O)[O-])c(N)n3)n2)c1 [Example 40]
8 | 22 nM | N#Cc1ccc(NC2CCCN(c3nc(-c4ccc(Cl)cc4Cl)cc4nccn34)C2)nc1 (single isomer, unassigned) [Ent. B 123, 6-({1-[7-(2,4-dichlorophenyl)imidazo[1,2-c]pyrimidin-5-yl]piperidin-3-yl}amino)pyridine-3-carbonitrile trifluoroacetate]
9 | 3 nM | Nc1nc(NCCNc2nc(-c3ccc(Cl)cc3Cl)cc3ncnn23)sc1C(=O)C(F)(F)F [Example 203]
10 | 24 nM | CN(C)Cc1cn2c(NCCNc3ccc([N+](=O)[O-])c(N)n3)nc(-c3ccc(Cl)cc3Cl)cc2n1 [Example 147, N^6-[2-({7-(2,4-Dichlorophenyl)-2-[(dimethylamino)methyl]imidazo[1,2-c]pyrimidin-5-yl}amino)-ethyl]-3-nitropyridine-2,6-diamine trifluoroacetate]
11 | 19 nM | N#Cc1ccc(NCCNc2nc(-c3ccc(Cl)cc3Cl)cc3ncc(Cl)n23)nc1 [Example 154, 6-[(2-{[3-Chloro-7-(2,4-dichlorophenyl)imidazo[1,2-c]pyrimidin-5-yl]amino}ethyl)amino]-pyridine-3-carbonitrile]
12 | 41 nM | CN1CCN(CCNC(=O)c2cn3c(NCCNc4ccc(C#N)cn4)nc(-c4ccc(Cl)cc4Cl)cc3n2)CC1 [Example 113]
13 | 7 nM | Nc1nc(NCCNc2nc(-c3ccc(Cl)cc3Cl)cc3nccn23)sc1C(=O)C(F)(F)F [Example 129]
14 | 94 nM | N#Cc1ccc(NCCNc2nc(-c3ccc(C(F)(F)F)cc3)cc3nc(C(=O)NCCO)cn23)nc1 [Example 117]
15 | 61 nM | COC(=O)c1ccc(NCCNc2nc(-c3ccc(Cl)cc3Cl)cc3ncnn23)nc1N [Example 167]
16 | 8 nM | Nc1nc(NCCNc2nc(-c3ccc(Cl)cc3Cl)cc3nc(CN4CCOCC4)cn23)ccc1[N+](=O)[O-] [Example 81, N^6-(2-{[7-(2,4-Dichlorophenyl)-2-(morpholin-4-ylmethyl)imidazo[1,2-c]pyrimidin-5-yl]amino}ethyl)-3-nitropyridine-2,6-diamine trifluoroacetate]
17 | 0.7 nM | Nc1nc(NCCNc2nc(-c3ccc(Cl)cc3Cl)cc3nc(CN4CCOCC4)nn23)ccc1C(=O)C(F)(F)F [Example 194]
18 | 62 nM | N#Cc1ccc(NCCNc2nc(-c3ccc(Cl)cc3Cl)cc3nc(CN4CCOCC4)cn23)nc1 [Example 145, 6-[(2-{[7-(2,4-Dichlorophenyl)-2-(morpholin-4-ylmethyl)imidazo[1,2-c]pyrimidin-5-yl]amino}-ethyl)amino]pyridine-3-carbonitrile trifluoroacetate]
19 | 183 nM | N#Cc1ccc(NCCNc2nc(-c3ccc(C(F)(F)F)cc3)cc3nccn23)nc1 [Example 7, 6-{[2-({7-[4-(Trifluoromethyl)phenyl]imidazo[1,2-c]pyrimidin-5-yl}amino)ethyl]amino}-nicotinonitrile]
